# Laboratory results: patent US8460932B2, “Method of treating a disorder by suicide gene therapy” (priority 1999, dated 2013)
# System: brains of rodents
# Test: Expression, distribution and longevity of transgene in brain after intrastriatal vector injection (immunohistochemistry)
# Format: in vivo, Lewis rat
# Details: GCV 25 mg/kg i.p. twice daily for 7 days vs saline after RAd 128; 1 month to 1 year
# Procedure: UK. […] Antibodies were diluted in 1% NHS in TBS.
# Groups of animals were then perfused 1 month, 3 months, 5 months, or 12 months later. Animals were perfusion-fixed and brains were cut in serial sections.
# To assess the effects of HSV-1 TK on the expression another transgene, lacZ, a combination of either RAd TK+RAd HPRT or RAd 35+RAd HPRT or RAd 35+RAd TK was injected into the mid striatum of 9 rats (3 rats per group). The total vector dose was 8×10^7 iu (i.e. 4×10^7 iu per vector).
structure (smiles),measurement,value
"Nc1nc(O)c2ncn(COC(CO)CO)c2n1 [GCV, ganciclovir]",Effect on the maintenance of HSV1-TK immunoreactivity in the rodent brain,no effect
